From patent publication US7691567B2, “Methods and compositions relating to fortilin, an anti-apoptotic molecule, and modulators of fortilin” (Board of Regents, the University of Texas System, priority 2000, dated 2010)
Entries after “also recorded” stand apart in the source; their conditions may differ.

Assays:
[1] = tested on: caspase 3-like activity; test: Assay of caspase 3-like activity in U2OS stable transfectants (Z-DEVD-AFC); type: cell-based
Experimental: Assay of caspase 3-like activity. Approximately 2×10^6 U2OS stable transfectants, either expressing Fortilin (U2OS.F) or harboring empty expression vector (U2OS.E), both of which have been characterized above, were challenged either with dimethyl sulfoxide (DMSO) (vehicle) or with etoposide at a final concentration of 10 μg/mL for 48 hours. Caspase 3-like activity was then determined as previously described (Mannick et al., 1999). In brief, cytosolic proteins were extracted in hypotonic cell lysis buffer (25 mM HEPES, pH 7.5, 5 mM MgCl2, 5 mM EDTA, 5 mM dithiothreitol, 0.05% phenylmethylsulfonyl fluoride [PMSF]; all from Sigma) by three cycles of freezing and thawing. The protein concentration of samples was determined by using a BioRad Bradford protein assay kit (BioRad). Ten micrograms of cytosolic extracts were added to caspase assay buffer (312.5 mM HEPES, pH 7.5, 31.25% sucrose, 0.3125% CHAPS) with Z-DEVD-AFC as substrates (CalBiochem, San Diego, Calif.). Release of 7-amido-4-(trifluoromethyl)coumarin (AFC) was quantified, after 2 hours of incubation at 37° C. (or, in the case of time course experiment, every 10 minutes), using a Fluoroskan system (Thermo-Labsystems, Helsinki, Finland) set to an excitation value of 355 nm and emission value of 525 nm. The results were expressed as relative fluorescence unit (R.F.U.) per microgram of protein.

[2] = biological target: T1, p53 (Homo sapiens, UniProt P04637); test: GST-Fortilin in vitro pull-down of labeled p53; type: binding; conditions: 35S-labeled p53, 4° C. 90 minutes
Experimental: (§1) Studies were initiated to determine whether p53 and Fortilin specifically interact. Either recombinant GST-Fortilin or GST only were incubated at 4° C. for 90 minutes with in vitro translated, [^35S-Met]-labeled p53, MCL1 or Bcl-xL, in Binding Buffer (50 mM HEPES, pH7.5, 70 mM KCl, 0.5 mM ATP, 5 mM MgSO4, 1 mM DTT, 0.001% NP40, 50 μM MG132, 2 μg/mL BSA, Aporotinin, PMSF and protease inhibitor cocktail (Sigma Co., St. Louis, Mo.)). The GST or GST-Fortilin was then pulled down with Glutathione Sepharose 4B beads (Amersham-Pharmacia Biotechnologies). Formed complexes were extensively washed and eluted into SDS loading buffer. The eluted proteins were subjected to SDS-PAGE in duplicate. The first SDS gel was stained with Commassie Blue to confirm the successful immunoprecipitation of GST and GST-Fortilin (IP). […] Thus, there is a specific interaction present between Fortilin and p53, between Fortilin and MCL1.

[3] = tested on: MCL1; test: Western blot of intracellular MCL1 concentration in U2OS cells overexpressing Fortilin; type: cell-based; conditions: U2OS stable transfectants, compared with control or wild type transfectants
[4] = biological target: T2, Bcl-xL (Homo sapiens, UniProt Q07817); test: GST-Fortilin in vitro pull-down of labeled Bcl-xL; type: binding; conditions: 35S-labeled Bcl-xL
Experimental: as §1

[5] = tested on: p53 transactivation of Bax gene; test: p53 transactivation of Bax gene, p-Bax-RE-Luc luciferase reporter in H1299 cells; type: cell-based
Experimental: The ability of Fortilin to interfere with transactivation of the Bax gene by p53 was investigated. Non-small cell lung cancer cell line H1299 cells were transfected with p53-pcDNA3, LacZ-pFLAG, p-Bax-RE-Luc (a plasmid encoding the Luciferase gene under the control of the Bax responsive element) and pFLAG vector encoding Bcl-2, MCL1, Fortilin or truncated Fortilin as indicated in FIG. 6. Twenty-four hours after the transfection, luciferase activity was measured and normalized to the β-galactosidase activity, the latter representing transfection efficiency.
Next, studies were conducted to determine whether the inhibition was dosage dependent. H1299 cells were transfected with p53-pcDNA3, LacZ-pFLAG, p-Bax-RE-Luc and various amount of Fortilin-pFLAG. The total amount of DNA added was adjusted by the addition of empty pFLAG vector. Twenty-four hours after the transfection, luciferase activity was measured and normalized to the β-galactosidase activity.

[6] = biological target: MCL1 (Homo sapiens, UniProt Q07820); test: In vivo coimmunoprecipitation assay in U2OS stable transfectants of Fortilin and mutants; conditions: anti-HA immunoprecipitation
Source text: In vivo coimmunoprecipitation assay. COS-7 cells (2.5×10^6) were cotransfected with pcDNA3-Fortilin-HA or pcDNA3 and with FLAG-MCL1/pFLAG-CMV or pFLAG-CMV vectors using FuGENE6 (Roche Molecular Biochemicals), according to the manufacturer's instructions. […] Formed complexes were precipitated by sheep anti-rat antibodies conjugated to Dynabead™ (Dynal USA); washed with Buffers A and B; eluted into SDS gel loading buffer; and subjected to SDS-PAGE, Western blot transfer and immuodetection with anti-HA (16B12; Covance, Richmond, Calif.) and anti-FLAG (M2; Sigma) antibodies. […] Cells were harvested by scraping, washed with chilled PBS, suspended in Buffer C (Buffer A supplemented with 0.02% NP-40), and lysed by a nitrogen cavitation method (PARR Instrument Co). […] Formed complexes were precipitated by sheep anti-rat antibodies conjugated to Dynabeads™ (Dynal USA); washed with Buffers C; eluted into SDS gel loading buffer; and subjected to SDS-PAGE, Western blot transfer and immuodetection with anti-HA (16B12; Covance, Richmond, Calif.) and anti-MCL1 (Santa Cruz Biotechnology) antibodies.

[7] = tested on: H1299 cells; test: p53-mediated apoptosis in transfected H1299 cells (apoptotic index); type: cell-based; conditions: overexpression, thirty hours after transfection
Experimental: Because wild-type p53 can induce apoptosis, the ability of Fortilin to prevent or inhibit p53-mediated apoptosis was examined. H1299 cells were transfected with indicated combinations of mammalian expression constructs. Thirty hours after the transfection, cells were fixed and stained for beta-galactosidase activities. Cells that were round in shape with significant membrane irregularity were counted as apoptotic (FIG. 5). Apoptotic index was calculated as (Blue cells with apoptotic plasma membrane morphology)/(Total blue cells counted)×100.

[8] = biological target: T1, p53; test: Coimmunoprecipitation of fortilin and p53 from U2OS cell lysates; type: binding; set-up: endogenous in cells; host or cells: U2OS
Experimental: As in example 2, studies were initiated to determine whether p53 and Fortilin specifically interact in U2OS cells. Six million U2OS cells stably expressing either HA-fortilin or HA-only were suspended in lysis-binding-wash buffer (50 mM HEPES, pH7.5, 70 mM KCl, 0.5 mM ATP, 5 mM MgSO4, 1 mM DTT, 0.1% NP40, 2 mg/mL BSA, Aprotinin, PMSF, MG132 and protease inhibitor cocktail). Cells were then mechanically disrupted by nitrogen excavitation method. Cleared total cell lysates were incubated with […] anti-HA antibody (3F10, Roche), followed by the incubation with anti-mouse IgG conjugated to magnetic beads (Dynal USA) and extensive wash with lysis-binding-wash buffer.
Further experiments were conducted to determine in vivo immunoprecipitation of fortilin by p53. Twenty million U2OS cells were suspended in lysis-binding buffer (50 mM HEPES, pH7.5, 70 mM KCl, 0.5 mM ATP, 5 mM MgSO4, 1 mM DTT, 0.001% NP40, 2 mg/mL BSA, Aprotinin, PMSF, MG132 and protease inhibitor cocktail). Cells were then mechanically disrupted by nitrogen excavitation method. Cleared total cell lysates were divided equally into two eppendorf tubes. To the first tube, anti-p53 antibody (DO-1, […]) was added, while […] control monoclonal antibody was added to the second tube. After incubation, formed complexes were precipitated by goat anti-mouse IgG conjugated to magnetic beads (Dynal USA), followed by extensive wash. […]

[9] = biological target: T2, Bcl-xL; test: In vitro pull-down assay of Fortilin-HA with Bcl-xL; type: binding; conditions: in vitro translated proteins, anti-HA pull-down

T2 sequence (Q07817 whole entry, species assumed): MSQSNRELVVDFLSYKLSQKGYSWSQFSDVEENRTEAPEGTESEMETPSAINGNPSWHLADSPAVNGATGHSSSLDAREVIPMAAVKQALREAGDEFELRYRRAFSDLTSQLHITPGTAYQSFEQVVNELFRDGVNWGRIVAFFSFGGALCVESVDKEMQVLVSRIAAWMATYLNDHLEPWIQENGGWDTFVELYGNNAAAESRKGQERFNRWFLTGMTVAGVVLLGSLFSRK
T1 sequence (P04637 whole entry, species assumed): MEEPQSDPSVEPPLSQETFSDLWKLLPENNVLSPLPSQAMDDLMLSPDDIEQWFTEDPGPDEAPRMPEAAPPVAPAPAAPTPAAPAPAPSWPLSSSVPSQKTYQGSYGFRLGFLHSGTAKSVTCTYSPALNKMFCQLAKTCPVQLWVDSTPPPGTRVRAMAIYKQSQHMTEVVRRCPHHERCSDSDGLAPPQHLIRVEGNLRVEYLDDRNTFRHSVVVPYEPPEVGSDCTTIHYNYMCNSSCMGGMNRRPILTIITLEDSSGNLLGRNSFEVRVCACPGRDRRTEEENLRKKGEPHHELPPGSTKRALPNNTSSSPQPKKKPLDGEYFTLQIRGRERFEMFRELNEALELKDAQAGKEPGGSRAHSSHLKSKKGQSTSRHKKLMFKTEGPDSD
MCL1 (Homo sapiens, UniProt Q07820), sequence (Q07820 whole entry): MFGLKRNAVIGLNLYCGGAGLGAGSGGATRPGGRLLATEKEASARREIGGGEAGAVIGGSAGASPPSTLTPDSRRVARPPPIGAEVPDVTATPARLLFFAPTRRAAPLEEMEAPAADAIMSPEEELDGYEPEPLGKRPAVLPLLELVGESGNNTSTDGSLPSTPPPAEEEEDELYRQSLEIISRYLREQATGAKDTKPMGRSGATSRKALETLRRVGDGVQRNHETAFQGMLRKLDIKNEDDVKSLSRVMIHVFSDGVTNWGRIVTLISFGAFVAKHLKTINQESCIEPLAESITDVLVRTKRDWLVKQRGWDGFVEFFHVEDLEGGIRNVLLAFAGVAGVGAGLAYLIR

Fortilin: 172 amino acid anti-apoptotic polypeptide (SEQ ID NO:2), overexpressed from expression constructs or used as recombinant/in vitro translated protein
inhibition of caspase-3-like activity, kinetics ([1]; U2OS cells, 10 μg/mL etoposide, signals every 10 minutes for 2 hours): significantly inhibited the caspase-3-like activity in U2OS cells at all time points | inhibition of caspase-3-like activity upon etoposide challenge ([1]; U2OS cells, etoposide 10 μg/mL 48 hours, vs empty vector): significantly inhibited the caspase-3-like activity in U2OS cells | caspase-3-like activity ([1]; U2OS stably expressing Fortilin (U2OS.F), absence of etoposide challenge (DMSO)): 283±22.6 R.F.U./μg protein | caspase-3-like activity index ([1]; U2OS stably expressing Fortilin (U2OS.F), etoposide 10 μg/mL 48 hours): 713.9±62.6 R.F.U./μg protein | co-immunoprecipitation of p53 with Fortilin in vitro [2]: co-immunoprecipitated with Fortilin in vitro | expression levels of MCL1 (MCL1 Expression Index) [3]: similar | co-immunoprecipitation of Bcl-xL with Fortilin in vitro [4]: not Bcl-xL | inhibition of p53 transactivation of Bax gene (luciferase normalized to β-galactosidase) ([5]; twenty-four hours after transfection): inhibited p53 transactivation of the Bax gene | inhibitory effect on p53 transactivation of Bax gene versus amount of Fortilin transfected ([5]; various amount of Fortilin-pFLAG): stronger inhibitory effects on p53 transactivation of the Bax gene; also recorded: larger inhibitory effect on p53 transactivation of Bax gene | co-immunoprecipitation of MCL1 in vivo [6]: co-immunoprecipitated MCL1 | suppression of p53 induced apoptosis (apoptotic index) [7]: statistically significant (p<0.001) suppression of p53-induced apoptosis; also recorded: statistically significant (p<0.001) suppression of p53 induced apoptosis | co-precipitation of fortilin and p53 in vivo [8]: The presence of immunoprecipitated p53 was necessary and sufficient to co-precipitate fortilin | co-immunoprecipitation of Bcl-xL with Fortilin in vitro [9]: not
